# Structures can show the parent of a compound that is named as a salt.
# What was measured:
# [1] = tested on: rats; test: Acute toxicity by oral dose, rats; assay type: in vivo; conditions: up to a dose of 5 g/kg
# From the text: (§1) The product is not toxic. The experiments relating to acute toxicity by oral dose for mice and rats have given evidence that there is no mortality amongst animals treated up to a dose of 5 g/kg.
# [2] = Overall activity from both experimental standards I and II; assay type: in vivo, Wistar rats; conditions: for product activity: of the order of
# Description: The hypolipaemiant properties of the CRL 40 122 have been studied in rats according to two different standard experiments:
# The experiment was conducted for two weeks on Wistar rats, subjected to a daily hyperlipidic diet at the dose of about 20 g for an animal of 150 g in average.
# The activity of the product studied was determined by comparison with normal control groups of rats and with groups of rats subjected to a hyperlipidic diet and not treated. For each dose of CRL 40 122 there were three groups of five animals each (control group, group only receiving the hyperlipidic diet, and treated group). The results obtained correspond to the average of each of the series. A very interesting activity of CRL 40 122 appeared at active doses of 10 mg to 50 mg/kg in rats subjected to a hyperlipidic diet (decrease from 64 to 34% of the rate of blood lipids according to dose; decrease of cholesterol from 68 to 41%).
# (§2) The experiment was carried out over five days on normal male Wistar rats. The animals, numbering 8 per dose of the product to be studied, were treated orally daily, the last feed taking place 3 hours before the animals were killed. Each series was divided into two groups of animals: one group killed after 3 days of experiment; the other group killed after 5 days of experiment.
# The results were determined by comparison with 8 normal rats subjected to the same experimental conditions and not treated.
# Overall these tests led to the following conclusions:
# 1. The two experimental standards, although very different give rise to a product activity of the order of: […]
# [3] = Human therapeutics: patients suffering from hyperlipaemia and hypercholesterolaemia; assay type: in vivo
# [4] = Experimental standard II: normal rats, five days oral treatment; assay type: in vivo, normal male Wistar rats; conditions: oral dose of 20 mg/kg, vs untreated normal rats
# Description: as §2, with “The hypolipaemiant properties of the CRL 40 122 have been studied in rats according to two different standard experiments: A study on normal Wistar rats (standard II). The experiment” for “The experiment”, “of experiment. The results were determined by comparison with 8 normal rats subjected to the same experimental conditions and not treated.” for “of experiment.”
# [5] = tested on: mice; test: Acute toxicity by oral dose, mice; assay type: in vivo
# From the text: as §1
# [6] = Solubility (stated with the preparation); assay type: physicochemical
# [7] = Hypolipidic activity in rats on hyperlipidic diet (Table IV); assay type: in vivo; parameters: Burstein Test: unit not given here; conditions: for Total Cholesterol / Total Lipids / Burstein Test, % inhibition / Total Cholesterol, % inhibition / Total Lipids, % inhibition / Burstein Test: Table IV; for Burstein Test, % inhibition / Total Cholesterol, % inhibition / Total Lipids, % inhibition: normal = 100%, hyperlipidic = 0%
# From the text: In Table IV below the following results have been obtained.
# A -- in rats receiving a normal diet (percentage inhibition = 100%);
# B -- in rats receiving a hyperlipidic diet (percentage inhibition = 0%);
# C -- in rats receiving the same hyperlipidic diet B with a daily dose of 0.1 g/kg of a reference normolipidemiant LIPAVLON [ethyl-2-(p-chlorophenoxy)-2-methylpropionate; International name: CLOFIBRATE];
# D -- in rats receiving the same hyperlipidic diet B with a daily dose of 0.1 g/kg of a reference normolipidemiant ATHEROLIP [aluminium salt of 2-(p-chlorophenoxy)-2-methylpropionic acid];
# E -- in rats receiving the same hyperlipidic diet B with a daily dose of 0.1 g/kg of a reference normolipidemiant, LL 1558 [1,10-bis(2-hydroxyethyl-thio)decane];
# F -- in rats receiving the same hyperlipidic diet B with a daily dose 0.010 g/kg, 0.025 g/kg or 0.050 g/kg of CRL 40046.
# The averages of the tests effected on CRL 40 055 in three different doses and calculated comparatively to reference products corresponding to various experiments allow an activity of the product to be concluded as follows: […]
# [8] = total dose of 400 mg per day, capsules of 100 mg and 200 mg
# [9] = first experiment, hyperlipidic diet + product 0,1g/kg daily
# [10] = first experiment, hyperlipidic diet + product 0,050g/kg daily
# [11] = second experiment, hyperlipidic diet + product 0,025g/kg daily
# [12] = third experiment, hyperlipidic diet + product "010g/kg" daily
# [13] = second experiment, hyperlipidic diet + product 0,1g/kg daily
# [14] = third experiment, hyperlipidic diet + product 0,1g/kg daily
compound,measurement,setting,value
"CC(CO)SCCCCCCCCCCSC(C)CO (racemic) [CRL 40 122, (±)-2,15-Dimethyl-3,14-dithia-1,16-hexadecanediol]",mortality,[1],no mortality
same,appearance of activity (onset),[2],after the third day of treatment
same,product activity,[2]; dose of 10 mg/kg,~20%
same,product activity,[2]; dose of 20 mg/kg,~30%
same,product activity,[2]; dose of 50 mg/kg,~60%
same,use in human therapeutics (in words),[3]; capsules dosed at 100 mg and at 200 mg,used with success
same,hypercholesterolaemia,[3]; [8],decrease after several days of treatment
same,hyperlipaemia,[3]; [8],decrease after several days of treatment
same,decrease in cholesterol,[4],23%
same,decrease in total lipids,[4],31%
same,toxicity (in words),"[5]; acute oral, mice and rats",not toxic
same,mortality,"[5]; oral, mice, up to a dose of 5 g/kg",no mortality
same,solubility in water,[6],insoluble
"CC(C)(Oc1ccc(Cl)cc1)C(=O)O [Atherolip, aluminium salt of 2-(p-chlorophenoxy)-2-methylpropionic acid]",Total Cholesterol,[7]; [9],2.08 g/L
same,Total Lipids,[7]; [9],6.8 g/L
same,"Burstein Test, % inhibition",[7]; [9],67%
same,"Total Cholesterol, % inhibition",[7]; [9],59%
same,"Total Lipids, % inhibition",[7]; [9],49%
"CC(C)(CO)SCCCCCCCCCCSC(C)(C)CO [CRL 40 055, 2,2,15,15-Tetramethyl-3,14-dithia-1,16-hexadecanediol]",Burstein Test,[7]; [10],64
same,Total Cholesterol,[7]; [10],2.29 g/L
same,Total Lipids,[7]; [10],7.45 g/L
same,"Burstein Test, % inhibition",[7]; [10],58%
same,"Total Cholesterol, % inhibition",[7]; [10],51%
same,"Total Lipids, % inhibition",[7]; [10],41%
same,Burstein Test,[7]; [11],82
same,Total Cholesterol,[7]; [11],2.43 g/L
same,Total Lipids,[7]; [11],8.06 g/L
same,"Burstein Test, % inhibition",[7]; [11],30%
same,"Total Cholesterol, % inhibition",[7]; [11],53%
same,"Total Lipids, % inhibition",[7]; [11],37%
same,Total Cholesterol,[7]; [12],3.81 g/L
same,Total Lipids,[7]; [12],11.3 g/L
same,"Burstein Test, % inhibition",[7]; [12],0%
same,"Total Cholesterol, % inhibition",[7]; [12],0%
same,"Total Lipids, % inhibition",[7]; [12],0%
same,activity (in words),[7]; dose of 0.010 g/kg,the activity appears to have completely disappeared
same,activity as compared with the reference products (in words),[7]; dose of 0.025 g/kg vs reference products at 0.1 g/kg,substantially constant activity as compared with the reference products
same,solubility in water,[6],insoluble
"OCCSCCCCCCCCSCCO [CRL 40 077, 1,8-Bis(2-hydroxyethyl-thio)-octane]",solubility in alcohol,[6],soluble
same,solubility in water,[6],insoluble
"OCCSCCCCCCSCCO [CRL 40 085, 1,6-Bis(2-hydroxyethyl-thio)-hexane]",solubility in alcohol,[6],soluble
same,solubility in water,[6],insoluble
"OCCSCCCCCCCCCSCCO [CRL 40 116, 1,9Bis(2-hydroxyethylthio)-nonane]",solubility in alcohol,[6],soluble
same,solubility in water,[6],insoluble
"OCCSCCCCCCCSCCO [CRL 40 120, 1,7-Bis(2-hydroxyethyl-thio)-heptane]",solubility in alcohol,[6],soluble
same,solubility in water,[6],insoluble
"OCC(O)CSCCCCCCCCCCSCC(O)CO (centres unmarked) [CRL 40 155, 1,10-Bis(2,3-dihydroxypropyl-thio)decan]",solubility in water,[6],insoluble
"OCCC(CO)SCCCCCCCCCCSC(CO)CCO (centres unmarked) [CRL 40 176, 1,18-Dihydroxy-3,16-di(hydroxymethylene)-4,15-dithia-octadecane]",solubility in water,[6],insoluble
"CC(CO)SCCCCCCCCCSC(C)CO (centres unmarked) [CRL 40 193, 2,14-Dimethyl-3,13-dithia-1,15-pentadecanediol]",solubility in water,[6],insoluble
"OCCSCCCCCCCCCCCSCCO [CRL 40 194, 1,11-Bis-(2-hydroxyethyl-thio)-undecane]",solubility in water,[6],insoluble
"OCCSCCCCCCCCCCSCCO [LL 1558, 1,10-bis(2-hydroxyethyl-thio)decane]",Burstein Test,[7]; [13],38
same,Total Cholesterol,[7]; [13],1.33 g/L
same,Total Lipids,[7]; [13],5.1 g/L
same,"Burstein Test, % inhibition",[7]; [13],87%
same,"Total Cholesterol, % inhibition",[7]; [13],85%
same,"Total Lipids, % inhibition",[7]; [13],82%
same,Burstein Test,[7]; [14],37
same,Total Cholesterol,[7]; [14],1.33 g/L
same,Total Lipids,[7]; [14],4.5 g/L
same,"Burstein Test, % inhibition",[7]; [14],85%
same,"Total Cholesterol, % inhibition",[7]; [14],70%
same,"Total Lipids, % inhibition",[7]; [14],77%
"CCOC(=O)C(C)(C)Oc1ccc(Cl)cc1 [Lipavlon, ethyl-2-(p-chlorophenoxy)-2-methylpropionate]",Total Cholesterol,[7]; [9],2.47 g/L
same,Total Lipids,[7]; [9],7.75 g/L
same,"Burstein Test, % inhibition",[7]; [9],49%
same,"Total Cholesterol, % inhibition",[7]; [9],46%
same,"Total Lipids, % inhibition",[7]; [9],37%
same,Total Cholesterol,[7]; [13],3 g/L
same,Total Lipids,[7]; [13],9.2 g/L
same,"Burstein Test, % inhibition",[7]; [13],27%
same,"Total Cholesterol, % inhibition",[7]; [13],36%
same,"Total Lipids, % inhibition",[7]; [13],20%
same,Total Cholesterol,[7]; [14],1.58 g/L
same,Total Lipids,[7]; [14],7.3 g/L
same,"Burstein Test, % inhibition",[7]; [14],25%
same,"Total Cholesterol, % inhibition",[7]; [14],60%
same,"Total Lipids, % inhibition",[7]; [14],22%

# From patent publication US4049829A, “Sulphur containing hydroxy aliphatic compounds” (Societe anonyme dite: Laboratoire L. Lafon, priority 1974, dated 1977)
